Measured values: BindingDB's records for doi:10.1016/j.ejmech.2017.07.016 (South Dakota State University, 2017)

Experiment: Antagonist activity at human CRFR1 expressed in HEK293 cells assessed as inhibition of sauvagine-induced cAMP accumulation by measuring sauvagine EC50 at 1 uM after 30 mins (Rvb = 0.203 nM)

`CCCCN(CC)c1nc(C)nc2c1sc(=N)n2-c1c(C)cc(C)cc1C` showed an EC50 of 1.1 nM.
